According to patent US6586460B1, “Heteroarotinoids containing urea or thiourea linker” (The Board of Regents for Oklahoma State University, priority 2001, dated 2003):
Several values for one entry are separate records, joined by “and”; a condition that tells them apart may be missing. Identical values can stand only once.

Tests used:
OVCAR-3 = test: Growth inhibition assay (SRB); format: cell-based, human; settings: for Percentage of growth inhibition, OVCAR−3 / inhibition at 1 µM / inhibition at 10 µM: 3 days of treatment; for inhibition at 1 µM / inhibition at 10 µM: Homo sapiens, OVCAR-3, 72 h, read-out: Percentage of growth inhibition, OVCAR−3
Text: (§1) To illustrate the general and useful biological activity of the heteroarotinoids described in this invention, selected compounds were screened for ability to inhibit the growth of three ovarian cancerous cell lines, namely Caov, SKOV, and OVCAR cell lines, three cervical cell lines (Cervix HPV-Wt p53, Cervix HPV-Mut p53, and Cervix HPV-Mut p53), and one vulvar (Vulvar HPV-Mut p53) cell line as shown in Tables I-III. The cell lines and the technology have been previously described [See Journal of Medicinal Chemistry, 1999, Vol. 42, pages 3602-3614 in an article entitled “Synthesis, Structure-Activity Relationships, and RAR γ-Ligand Interactions of Nitrogen Heteroarotinoids” by A. Dhar, S. Liu, J. Klucik, K. D. Berlin, M. M. Madler, S. Lu, R. T. Ivey, D. Zacheis, C. W. Brown, E. C. Nelson, P. J. Birckbichler, and D. M. Benbrook], but the general technique was slightly modified. Cultures of the cancerous cells were plated in volumes of 150 μL in 96-well microtiter plates at concentrations of 2000-4000 cells/well, depending upon the cell line used. Retinoids were added the next day at 4× the concentrations in 50 μL of media resulting in 1, 2, 3, 4, 5, 7, and 10 μM final concentrations of each retinoid. Control cultures were treated with the same volume of DMSO. After 3 days of treatment, the cell density in each well was determined by fixing the cells in trichloroacetic acid followed by staining the cytoplasmic proteins with sulforhoamine B (SRB). After rinsing, the SRB was solubilized in Tris-HCl, and the optical density of each culture was determined with a MR600 microtiter plate reader. Each experiment was performed in triplicate, and the three values of each treatment were averaged. The average OD of the treated cultures was divided by that of the control cultures treated with solvent alone. To determine the percent growth inhibition, this ratio was subtracted from 1 and multiplied by 100. Tables I, II, and III contain representative examples of the inhibition of growth by the inventive heteroarotinoids of the cancerous cell lines investigated at two independent concentrations (1 and 10 μM). As standards for comparison purposes, trans-retinoic acid (t-RA), 9-cis-retinoic acid (9-c-RA), 13-cis-retinoic acid (13-c-RA), and […] (4-HPR) were added in parallel experiments along with the heteroarotinoids and with dimethyl sulfoxide (DMSO) as the solvent. For convenience, the data in Tables II and III are duplicated and ranked according to tumor type.

SK-OV-3 = test: Growth inhibition assay (SRB); format: cell-based; settings: 3 days of treatment; for inhibition at 1 µM / inhibition at 10 µM: Homo sapiens, SK-OV-3, 72 h, read-out: Percentage of growth inhibition, SKOV−3
Text: as §1

CAOV-3 = test: Growth inhibition assay (SRB); format: cell-based; settings: 3 days of treatment; for inhibition at 1 µM / inhibition at 10 µM: Homo sapiens, Caov-3, 72 h, read-out: Percentage of growth inhibition, CAOV−3
Text: as §1

[1] = test system: SW962 vulvar carcinoma cultures; test: Apoptosis assay, Annexin-V-Flous/propidium iodide flow cytometry; format: cell-based
Text: Optimal chemotherapeutic agents will selectively kill tumor cells by inducing a natural form of cell death which is called “apoptosis”. Toxic agents kill both normal and tumor cells via a nonspecific process known as “necrosis”. To differentiate between apoptosis and necrosis in heteroarotinoid-treated cultures, a flow cytometric assay was employed. Treated cultures were stained with Annexin-V-Flous and propidium iodide, and the intensities of the stains are quantitated with Flow Cytometry. The Annexin-V-Flous binds to phosphatidyl serine on the exterior of apoptosing cells. This assay is specific for apoptosing cells because phosphatidyl serine is normally located on the inner membrane of the cells, a situation whereby the serine derivative cannot be bound by Annexin. However, during apoptosis, phosphatidyl serine is translocated to the outer membrane. The Flous moiety emits a signal that can be detected and quantitated by Flow Cytometry. In contrast, propidium iodide is taken up by necrotic cells that have lost membrane integrity. In this study, t-RA was used as a control for the non-apoptotic retinoids, and 4-HPR was used as a control for the apoptotic retinoids.

Molecule | Percentage of growth inhibition, OVCAR−3 (OVCAR-3; 1 μM, Table II) | Percentage of growth inhibition, OVCAR−3 (OVCAR-3; 10 μM, Table III) | Percentage of growth inhibition, SKOV−3 (SK-OV-3; 1 μM, Table II) | Percentage of growth inhibition, SKOV−3 (SK-OV-3; 10 μM, Table III) | Percentage of growth inhibition, CAOV−3 (CAOV-3; 1 μM, Table II) | Percentage of growth inhibition, CAOV−3 (CAOV-3; 10 μM, Table III) | further results
CCOC(=O)c1ccc(NC(=O)Nc2cc3c(cc2OC)C(C)(C)COC3(C)C)cc1 [heteroarotinoid 33] | 8.81% | 52.61% | 1.65% | 15.60% | 3.79% | 40.04% | –
CCCCOC(=O)c1ccc(NC(=O)Nc2cc3c(cc2OC)C(C)(C)COC3(C)C)cc1 [heteroarotinoid 34] | 2.2% | 30.5% | 22.2% | 6.0% | – | – | –
CCOC(=O)c1ccc(NC(=O)Nc2cc(C(C)=O)cc3c2OCCC3(C)C)cc1 [heteroarotinoid 45, Ethyl 4-{[N-(6-Acetyl-4,4-dimethylchroman-8-yl)carbamoyl]amino}benzoate] | – | – | – | – | – | – | inhibition at 1 µM (OVCAR-3; 1 μM, Table II): 9.2%; inhibition at 10 µM (OVCAR-3; 10 μM, Table III): 47.2%; inhibition at 1 µM (SK-OV-3; 1 μM, Table II): -4.18%; inhibition at 10 µM (SK-OV-3; 10 μM, Table III): 20%; inhibition at 1 µM (CAOV-3; 1 μM, Table II): 7.18%; inhibition at 10 µM (CAOV-3; 10 μM, Table III): 42.8%
CCCCOC(=O)c1ccc(NC(=O)Nc2c(OC)ccc3c2C(C)(C)COC3(C)C)cc1 [heteroarotinoid 40] | 15.47% | 33.74% | 1.82% | 9.27% | 15.24% | 37.84% | inhibition of growth of the OVCAR cell line exceeding that of 4-HPR (OVCAR-3; 1 μM, Table II): more than 1200%; inhibition of growth of the OVCAR cell line exceeding that of 9-c-RA (OVCAR-3; 1 μM, Table II): about 120%; inhibition of growth of the OVCAR cell line exceeding that of 13-c-RA (OVCAR-3; 1 μM, Table II): about 40%; inhibition of growth of the OVCAR cell line exceeding that of t-RA (OVCAR-3; 1 μM, Table II): about 120%
Cc1cc([N+](=O)[O-])ccc1NC(=S)Nc1cc2c(cc1C)SC(C)(C)CC2(C)C [heteroarotinoid 19] | 9.6% | 33.2% | 16.3% | 33.3% | – | – | –
Cc1cc2c(cc1NC(=S)Nc1ccc(C(=O)O)cc1)C(C)(C)CC(C)(C)S2 [heteroarotinoid 18] | 10.1% | 18.7% | 10.5% | 8.5% | – | – | –
COc1cc2c(cc1NC(=S)Nc1ccc([N+](=O)[O-])cc1C)C(C)(C)OCC2(C)C [heteroarotinoid 35] | 5.6% | 6.1% | 10.3% | −14.3% | – | – | –
COc1ccc2c(c1NC(=S)Nc1ccc([N+](=O)[O-])cc1)C(C)(C)COC2(C)C [heteroarotinoid 41] | 7.18% | 81.71% | −2.72% | 45.45% | 7.58% | 61.94% | –
trans-retinoic acid [t-RA, reference compound] | 6.0% | −3.0% and 3.0% | 8.8% | 6.0% | – | – | Percentage of induction of apoptosis in SW962 vulvar carcinoma cultures ([1]; Days 0): 3%; Percentage of induction of apoptosis in SW962 vulvar carcinoma cultures ([1]; Days 1): 2.53%; Percentage of induction of apoptosis in SW962 vulvar carcinoma cultures ([1]; Days 3): 1.25%; Percentage of induction of apoptosis in SW962 vulvar carcinoma cultures ([1]; Days 4): 4.5%; Percentage of induction of apoptosis in SW962 vulvar carcinoma cultures ([1]; Days 7): 3.51%
Cc1cc2c(cc1NC(=S)Nc1ccc(S(N)(=O)=O)cc1)C(C)(C)CC(C)(C)S2 [heteroarotinoid 20] | 10.3% | 47.1% | 14.7% | 12.1% | – | – | –
CC1(C)CC(C)(C)c2cc(NC(=S)Nc3ccc(S(N)(=O)=O)cc3)ccc2S1 [heteroarotinoid 15] | 8.91% | 40.90% | −1.86% | 9.83% | 19.85% | −9.56% | –
CC(=O)c1cc(NC(=S)Nc2ccc([N+](=O)[O-])cc2)c2c(c1)C(C)(C)CCO2 [heteroarotinoid 46] | 8.57% | 43.15% | −1.53% | 0.25% | 3.85% | −5.35% | –
Cc1cc2c(cc1NC(=S)Nc1ccc([N+](=O)[O-])cc1)C(C)(C)CC(C)(C)S2 [heteroarotinoid 17] | 6.6% | 64.9% | 3.0% | 65.3% | – | – | –
CC1(C)CC(C)(C)c2cccc(NC(=S)Nc3ccc([N+](=O)[O-])cc3)c2S1 [heteroarotinoid 22, [(4-Nitrophenyl)amino][(2,2,4,4-tetramethyl{3H-benzo[3,4-e]thiany-8-yl})amino]methane-1-thione] | 4.07% | 40.13% and 40.14% | 1.09% | – | −9.97% | – | –
CC1(C)CC(C)(C)c2cc(NC(=O)Nc3ccc(C(=O)O)cc3)ccc2S1 [heteroarotinoid 14] | −6.70% | 5.45% | 3.58% | 0.43% | −4.00% | 6.12% | –
CCOC(=O)c1ccc(NC(=S)Nc2cccc3c2SC(C)(C)CC3(C)C)cc1 [heteroarotinoid 23] | −0.19% | 2.75% | −0.79% | 7.67% | 11.36% | 17.77% | –
13-cis-retinoic acid [13-c-RA, reference compound] | 9.8% | – | 28.5% | – | – | – | –
CCOC(=O)c1ccc(NC(=O)Nc2c(OC)ccc3c2C(C)(C)COC3(C)C)cc1 [heteroarotinoid 38, Ethyl 4-{[N-(6-Methoxy-1,1,4,4-tetramethylisochroman-5-yl)carbamoyl]amino}benzoate] | – | – | – | – | – | – | inhibition at 1 µM (OVCAR-3; 1 μM, Table II): 9.48%; inhibition at 10 µM (OVCAR-3; 10 μM, Table III): 8.96%; inhibition at 1 µM (SK-OV-3; 1 μM, Table II): -2.39%; inhibition at 10 µM (SK-OV-3; 10 μM, Table III): -7.7%; inhibition at 1 µM (CAOV-3; 1 μM, Table II): 8.79%; inhibition at 10 µM (CAOV-3; 10 μM, Table III): -16.1%
